# Assay results published in ChEMBL document CHEMBL1149645, “Malondialdehyde scavenging and aldose-derived Schiff bases' transglycation properties of synthetic histidyl-hydrazide carnosine analogs” (Bioorg Med Chem, 2007).
# Calls of active or inactive are those of the source. The calls are words filed in the database; no cut-off is given here. Residues, ends and D or L forms follow the SMILES beside them. *: point of attachment. NHNH2 = NN*
# Test: Malondialdehyde scavenging activity in iron/ascorbate-induced oxidation in PC liposomes at 10 mM by TBARS test
# Type: functional
row,SMILES,Activity
1,NNC(=O)CNC(=O)OCc1ccccc1,Active
2,NNC(=O)[C@H](Cc1c[nH]cn1)NC(=O)[C@@H](N)Cc1ccccc1 (H-Phe-His-NHNH2),Active
3,CC(C)C[C@H](N)C(=O)N[C@@H](Cc1c[nH]cn1)C(=O)NN (H-Leu-His-NHNH2),Active
4,NCCC(=O)N[C@@H](Cc1c[nH]cn1)C(=O)O,Active
5,NCC(=O)NN,Active
6,NNC(=O)[C@@H](N)Cc1c[nH]cn1,Active
7,CC(C)CCCC(C)[C@H]1CCC2C3CC=C4C[C@@H](OC(=O)N[C@@H](Cc5c[nH]cn5)C(=O)NN)CC[C@]4(C)C3CC[C@@]21C (some centres undefined),Active
8,Cc1c(C)c2c(c(C)c1OC(=O)CCC(=O)N[C@@H](Cc1c[nH]cn1)C(=O)NN)CCC(C)(CCCC(C)CCCC(C)CCCC(C)C)O2 (some centres undefined),Active
9,NNC(=O)[C@H](Cc1c[nH]cn1)NC(=O)OCc1ccccc1,Active
